Laboratory results reported in PubChem BioAssay AID1963971 (Molecular Pharmacology Branch, DTP, NCI, 2024).

System: 953936-095-R-J2-PDC spheroids with HUVEC/MSC, viability
Experiment: Anticancer human tumor 953936-095-R-J2-PDC patient-derived cervical squamous cell carcinoma cell line growth inhibition [PI3K]
Conditions: for IC50: curve of first compound; for viability, T/C: stronger effect = lower value
Method in brief: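 Viability of mixed-cell spheroids was determined after exposure to pairwise combinations, one partner being inavolisib, alpelisib, duvelisib or copanlisib. Highest tested concentration matched clinical Cmax where known and 10 microM where not, descending in half-log steps.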

[1] = second compound 0.0316 µM, first compound 0.0316 µM
[2] = second compound 0.0316 µM, first compound 0.1 µM
[3] = second compound 0.1 µM, first compound 0.0316 µM
[4] = second compound 0.1 µM, first compound 0.1 µM
[5] = second compound 0.316 µM, first compound 0.0316 µM
[6] = second compound 0.316 µM, first compound 0.1 µM
[7] = second compound 1 µM, first compound 0.0316 µM
[8] = second compound 1 µM, first compound 0.1 µM
[9] = second compound 3.16 µM, first compound 0.0316 µM
[10] = second compound 3.16 µM, first compound 0.1 µM
[11] = second compound 10 µM, first compound 0.0316 µM
[12] = second compound 10 µM, first compound 0.1 µM
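Further: spheroids exposed to compounds for seven days before read-out.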

CC(=O)c1c(C)c2cnc(Nc3ccc(N4CCNCC4)cn3)nc2n(C2CCCC2)c1=O + Cc1nc(NC(=O)N2CCCC2C(N)=O)sc1-c1ccnc(C(C)(C)C(F)(F)F)c1
IC50 (second compound 0.0316 µM): > 100 nM
IC50 (second compound 0.1 µM): > 100 nM
IC50 (second compound 0.316 µM): > 100 nM
IC50 (second compound 1 µM): < 0.316 nM
IC50 (second compound 3.16 µM): < 0.316 nM
IC50 (second compound 10 µM): < 0.316 nM
viability, T/C (second compound 0.0316 µM, first compound 0.000316 µM): 88.8%
viability, T/C (second compound 0.0316 µM, first compound 0.001 µM): 92.6%
viability, T/C (second compound 0.0316 µM, first compound 0.00316 µM): 88.5%
viability, T/C (second compound 0.0316 µM, first compound 0.01 µM): 91%
viability, T/C [1]: 103%
viability, T/C [2]: 89.5%
viability, T/C (second compound 0.1 µM, first compound 0.000316 µM): 75.6%
viability, T/C (second compound 0.1 µM, first compound 0.001 µM): 82.3%
viability, T/C (second compound 0.1 µM, first compound 0.00316 µM): 85.6%
viability, T/C (second compound 0.1 µM, first compound 0.01 µM): 74.1%
viability, T/C [3]: 88%
viability, T/C [4]: 75.9%
viability, T/C (second compound 0.316 µM, first compound 0.000316 µM): 57.8%
viability, T/C (second compound 0.316 µM, first compound 0.001 µM): 69.5%
viability, T/C (second compound 0.316 µM, first compound 0.00316 µM): 61%
viability, T/C (second compound 0.316 µM, first compound 0.01 µM): 60.7%
viability, T/C [5]: 70.2%
viability, T/C [6]: 59.3%
viability, T/C (second compound 1 µM, first compound 0.000316 µM): 46.1%
viability, T/C (second compound 1 µM, first compound 0.001 µM): 46.3%
viability, T/C (second compound 1 µM, first compound 0.00316 µM): 44.4%
viability, T/C (second compound 1 µM, first compound 0.01 µM): 44.1%
viability, T/C [7]: 45.3%
viability, T/C [8]: 43.5%
viability, T/C (second compound 3.16 µM, first compound 0.000316 µM): 25.4%
viability, T/C (second compound 3.16 µM, first compound 0.001 µM): 25.3%
viability, T/C (second compound 3.16 µM, first compound 0.00316 µM): 27.3%
viability, T/C (second compound 3.16 µM, first compound 0.01 µM): 24.9%
viability, T/C [9]: 28.3%
viability, T/C [10]: 24.7%
viability, T/C (second compound 10 µM, first compound 0.000316 µM): 11.3%
viability, T/C (second compound 10 µM, first compound 0.001 µM): 10.9%
viability, T/C (second compound 10 µM, first compound 0.00316 µM): 10.2%
viability, T/C (second compound 10 µM, first compound 0.01 µM): 10.2%
viability, T/C [11]: 11.4%
viability, T/C [12]: 11.7%

CNC(=O)c1ccc(N2C(=S)N(c3ccc(C#N)c(C(F)(F)F)c3)C(=O)C2(C)C)cc1F + Cc1nc(NC(=O)N2CCCC2C(N)=O)sc1-c1ccnc(C(C)(C)C(F)(F)F)c1
IC50 (second compound 0.0316 µM): > 10000 nM
IC50 (second compound 0.1 µM): > 10000 nM
IC50 (second compound 0.316 µM): > 10000 nM
IC50 (second compound 1 µM): 53 nM
IC50 (second compound 3.16 µM): < 31.6 nM
IC50 (second compound 10 µM): < 31.6 nM
viability, T/C [1]: 85.4%
viability, T/C [2]: 92.7%
viability, T/C (second compound 0.0316 µM, first compound 0.316 µM): 108%
viability, T/C (second compound 0.0316 µM, first compound 1 µM): 105%
viability, T/C (second compound 0.0316 µM, first compound 3.16 µM): 83.5%
viability, T/C (second compound 0.0316 µM, first compound 10 µM): 79.7%
viability, T/C [3]: 81.2%
viability, T/C [4]: 93%
viability, T/C (second compound 0.1 µM, first compound 0.316 µM): 78.3%
viability, T/C (second compound 0.1 µM, first compound 1 µM): 76.9%
viability, T/C (second compound 0.1 µM, first compound 3.16 µM): 74.7%
viability, T/C (second compound 0.1 µM, first compound 10 µM): 73.9%
viability, T/C [5]: 64.1%
viability, T/C [6]: 65.9%
viability, T/C (second compound 0.316 µM, first compound 0.316 µM): 65.3%
viability, T/C (second compound 0.316 µM, first compound 1 µM): 59.9%
viability, T/C (second compound 0.316 µM, first compound 3.16 µM): 62.8%
viability, T/C (second compound 0.316 µM, first compound 10 µM): 54.3%
viability, T/C [7]: 54.1%
viability, T/C [8]: 44.2%
viability, T/C (second compound 1 µM, first compound 0.316 µM): 44.3%
viability, T/C (second compound 1 µM, first compound 1 µM): 48.6%
viability, T/C (second compound 1 µM, first compound 3.16 µM): 41.4%
viability, T/C (second compound 1 µM, first compound 10 µM): 38.1%
viability, T/C [9]: 26.6%
viability, T/C [10]: 29.8%
viability, T/C (second compound 3.16 µM, first compound 0.316 µM): 24.4%
viability, T/C (second compound 3.16 µM, first compound 1 µM): 25.5%
viability, T/C (second compound 3.16 µM, first compound 3.16 µM): 30%
viability, T/C (second compound 3.16 µM, first compound 10 µM): 24.8%
viability, T/C [11]: 12.2%
viability, T/C [12]: 11.2%
viability, T/C (second compound 10 µM, first compound 0.316 µM): 12.1%
viability, T/C (second compound 10 µM, first compound 1 µM): 11%
viability, T/C (second compound 10 µM, first compound 3.16 µM): 11.6%
viability, T/C (second compound 10 µM, first compound 10 µM): 10.7%

Cn1cnc2c(F)c(Nc3ccc(Br)cc3Cl)c(C(=O)NOCCO)cc21 + Cc1nc(NC(=O)N2CCCC2C(N)=O)sc1-c1ccnc(C(C)(C)C(F)(F)F)c1
IC50 (second compound 0.0316 µM): 748 nM
IC50 (second compound 0.1 µM): 308 nM
IC50 (second compound 0.316 µM): 36.8 nM
IC50 (second compound 1 µM): < 9.49 nM
IC50 (second compound 3.16 µM): < 9.49 nM
IC50 (second compound 10 µM): < 9.49 nM
viability, T/C (second compound 0.0316 µM, first compound 0.00949 µM): 85.7%
viability, T/C (second compound 0.0316 µM, first compound 0.03 µM): 87.1%
viability, T/C (second compound 0.0316 µM, first compound 0.0949 µM): 74.3%
viability, T/C (second compound 0.0316 µM, first compound 0.3 µM): 59.4%
viability, T/C (second compound 0.0316 µM, first compound 0.949 µM): 49.5%
viability, T/C (second compound 0.0316 µM, first compound 3 µM): 31.9%
viability, T/C (second compound 0.1 µM, first compound 0.00949 µM): 78.1%
viability, T/C (second compound 0.1 µM, first compound 0.03 µM): 70.1%
viability, T/C (second compound 0.1 µM, first compound 0.0949 µM): 52.7%
viability, T/C (second compound 0.1 µM, first compound 0.3 µM): 51.4%
viability, T/C (second compound 0.1 µM, first compound 0.949 µM): 47.4%
viability, T/C (second compound 0.1 µM, first compound 3 µM): 28.9%
viability, T/C (second compound 0.316 µM, first compound 0.00949 µM): 61.3%
viability, T/C (second compound 0.316 µM, first compound 0.03 µM): 50.8%
viability, T/C (second compound 0.316 µM, first compound 0.0949 µM): 43%
viability, T/C (second compound 0.316 µM, first compound 0.3 µM): 33.9%
viability, T/C (second compound 0.316 µM, first compound 0.949 µM): 26.1%
viability, T/C (second compound 0.316 µM, first compound 3 µM): 20.1%
viability, T/C (second compound 1 µM, first compound 0.00949 µM): 44%
viability, T/C (second compound 1 µM, first compound 0.03 µM): 35%
viability, T/C (second compound 1 µM, first compound 0.0949 µM): 24.9%
viability, T/C (second compound 1 µM, first compound 0.3 µM): 24.3%
viability, T/C (second compound 1 µM, first compound 0.949 µM): 12.1%
viability, T/C (second compound 1 µM, first compound 3 µM): 7.18%
viability, T/C (second compound 3.16 µM, first compound 0.00949 µM): 21.1%
viability, T/C (second compound 3.16 µM, first compound 0.03 µM): 15.3%
viability, T/C (second compound 3.16 µM, first compound 0.0949 µM): 11.3%
viability, T/C (second compound 3.16 µM, first compound 0.3 µM): 7.62%
viability, T/C (second compound 3.16 µM, first compound 0.949 µM): 5.36%
viability, T/C (second compound 3.16 µM, first compound 3 µM): 1.67%
viability, T/C (second compound 10 µM, first compound 0.00949 µM): 6.2%
viability, T/C (second compound 10 µM, first compound 0.03 µM): 5.44%
viability, T/C (second compound 10 µM, first compound 0.0949 µM): 4.18%
viability, T/C (second compound 10 µM, first compound 0.3 µM): 2.71%
viability, T/C (second compound 10 µM, first compound 0.949 µM): 1.25%
viability, T/C (second compound 10 µM, first compound 3 µM): 0.42%
